{"source": "the NIST ThermoML archive (doi:10.1016/j.jct.2004.07.008)", "key": {"[1]": {"details": "100 kPa, Liquid"}, "[2]": {"test": "xn = mol fraction of the nth substance listed", "details": "278.15 K; 100 kPa; Liquid; x2 = 0"}}, "note": "± gives the expanded uncertainty stated by the source.", "data": [{"compound": "CCNCC", "note": "[diethylamine]", "values": [{"measurement": "mass density", "setting": "[1]; 278.15 K", "value": "719.94 ± 1.2", "unit": "kg/m3"}, {"measurement": "mass density", "setting": "[1]; 288.15 K", "value": "709.52 ± 1.2", "unit": "kg/m3"}, {"measurement": "mass density", "setting": "[1]; 293.15 K", "value": "704.59 ± 1.2", "unit": "kg/m3"}, {"measurement": "mass density", "setting": "[1]; 298.15 K", "value": "698.97 ± 1.2", "unit": "kg/m3"}, {"measurement": "mass density", "setting": "[1]; 308.15 K", "value": "688.29 ± 1.3", "unit": "kg/m3"}]}, {"compound": "O", "note": "[water] + CCNCC", "values": [{"measurement": "mass density", "setting": "[2]", "value": "999.964 ± 0.25", "unit": "kg/m3"}]}]}
